Data set [1] in a line: Chemical stability, ambient storage. The class given is physicochemical. The settings on record: for 17 Months (% Change from Initial): active ingredient in Professional Formulation 1, 17 Months (title: 14 Months); for 16 Months (% Change from Initial): active ingredient in Professional Formulation 2. The procedure:
(§1) Formulations were prepared as described in Example I. Physically stable formulations (no settling or physical issues observed) were tested for chemical stability over various time spans and temperature conditions.

Data set [2] can be described thus: Chemical stability, accelerated 40° C. storage. In kind it is physicochemical. To be noted: for 30 Days @ 40° C. (% Change from Initial): 30 days at 40° C.; for 42 Days @ 40° C. (% Change from Initial): 42 days at 40° C. The method, then:
as §1
Formulations were prepared as described in Example III. Physically stable formulations (no settling or physical issues observed) were tested for chemical stability over various time spans and temperature conditions.

[3] abbreviates: active ingredient in Consumer Formulation 3.
Where [4] appears, read: active ingredient in Professional Formulation 1.
The mark [5] stands for this setting: active ingredient in Professional Formulation 2.
Where [6] appears, read: active ingredient in Ready to Use Formulation 3.
Setting [7] is: active ingredient in Ready-to-Use Formulation 2.

`O=C(O)COc1ccc(Cl)cc1Cl` [2,4-D acid]: in data set [1], the “17 Months (% Change from Initial)” value was “+2.71%”. Besides, the “16 Months (% Change from Initial)” value in data set [1] is given as −2.02%. For the same molecule, the “30 Days @ 40° C. (% Change from Initial)” value is on record as −0.21% in data set [2] (setting [3]), “−.21%” in data set [2] (setting [6]) and “+0.83%” in data set [2] (setting [7]). Also, the “42 Days @ 40° C. (% Change from Initial)” value in data set [2] (setting [4]) is on record as “+0.66%”; in data set [2] (setting [5]), “+1.38%”.
`COc1c(Cl)ccc(Cl)c1C(=O)O` [Dicamba acid, 3,6-dichloro-2-methoxybenzoic acid]: in data set [1], the “17 Months (% Change from Initial)” value was “+2.04%”. Also, the “16 Months (% Change from Initial)” value in data set [1] is −0.80%. For the same molecule, the “30 Days @ 40° C. (% Change from Initial)” value in data set [2] (setting [3]) is on record as 0.00%; in data set [2] (setting [6]), −1.79%; in data set [2] (setting [7]), “+1.10%”. For the same molecule, the “42 Days @ 40° C. (% Change from Initial)” value in data set [2] (setting [4]) is recorded as −4.11%; in data set [2] (setting [5]), 0.00%.
For `Cc1nn(-c2cc(NS(C)(=O)=O)c(Cl)cc2Cl)c(=O)n1C(F)F` [Sulfentrazone, N-[2,4-dichloro-5-[4-(difluoromethyl)-3-methyl-5-oxo-1,2,4-triazol-1-yl]phenyl]methanesulfonamide], in data set [1], the “17 Months (% Change from Initial)” value is “+3.60%”. Moreover, the “16 Months (% Change from Initial)” value in data set [1] is reported as “+5.71%”. For the same molecule, the “30 Days @ 40° C. (% Change from Initial)” value in data set [2] (setting [3]) was 0.00%; in data set [2] (setting [6]), −0.33%; in data set [2] (setting [7]) it was −0.67%. Further, the “42 Days @ 40° C. (% Change from Initial)” value in data set [2] (setting [4]) is listed as “+1.30%”; in data set [2] (setting [5]), “+0.29%”.
Regarding `Cc1c(C(=O)c2c[nH]n(C)c2=O)ccc(S(C)(=O)=O)c1C1=NOCC1` [Topramazone, 4-[3-(4,5-dihydro-1,2-oxazol-3-yl)-2-methyl-4-methylsulfonylbenzoyl]-2-methyl-1H-pyrazol-3-one], in data set [1], the “17 Months (% Change from Initial)” value is −4.79%. Moreover, the “16 Months (% Change from Initial)” value in data set [1] was −4.40%. Further, the “30 Days @ 40° C. (% Change from Initial)” value in data set [2] (setting [3]) was −1.53%; in data set [2] (setting [6]), −0.46%; in data set [2] (setting [7]), 0.00%. The “42 Days @ 40° C. (% Change from Initial)” value in data set [2] (setting [4]) is recorded as −3.89%; in data set [2] (setting [5]) it was “+1.14%”.

The values above are taken from US20230284621A1, “HERBICIDAL COMPOSITIONS” (PBI-Gordon Corporation, priority 2022, published 2023).
